Like-named read-outs stand apart in the source and are kept apart here.
Experiments:
[1] = system: A549 (human lung adenocarcinoma); experiment: Cytotoxicity assay (CellTiter-Glo), A549; format: cell-based; conditions: 72 h, A549 cells, three days culture, rounded to 1 significant figure
Protocol: (§1) The cell lines A549 (human lung adenocarcinoma), OVCAR-3 (human ovarian carcinoma), HL60 (human promyelocytic leukemia), DLD1 (human colon adenocarcinoma) and HCT116 (human colon carcinoma) were obtained from the American Type Culture Collection, Manassas, Va., U.S.A. All products were used in accordance with manufacturer's directions. The histone phosphorylation (p-H3) assay was conducted in duplicate and the cytotoxicity assays were conducted in triplicate, in each case with solvent control.
(§2) Log-phase cells were trypsinized, collected by centrifugation, and resuspended in a small volume of fresh medium, and the density of viable cells was determined following Trypan Blue staining. Cells were diluted in fresh media, the test compounds (concentrations between 0.1 μM and 200 μM, dissolved in DMSO, 50 μL) added immediately after dilution to achieve a final DMSO concentration of 0.5%, then the suspensions added at 150 μL/well to 96-well plates, and incubated overnight to allow attachment in the case of adherent cells. The cells were cultured for three days (about three doubling times). The cells were then collected by centrifugation, and 100 μL of the culture supernatant was replaced by the CellTiter-Glo reagent. After incubation for 15 minutes at room temperature, the plate was read with a luminometer. […] The table gives cytotoxicity IC50s in μM, rounded to 1 significant figure.

[2] = system: tubulin polymerization in A549 cells; experiment: Inhibition of tubulin polymerization in A549 cells by immunomicroscopy and cell fractionation; format: cell-based, human
[3] = system: HL60 (human promyelocytic leukemia); experiment: Cytotoxicity assay (CellTiter-Glo), HL-60; format: cell-based; conditions: 72 h, HL-60 cells, three days culture, rounded to 1 significant figure
Protocol: as §1, §2

p-H3 in A549 cells = experiment: Histone phosphorylation (p-H3) assay; format: cell-based; conditions: Homo sapiens, 4 hr incubation, dot-blot
Protocol: as §1
Log phase A549 cells were seeded in a 96-well plate and allowed to attach overnight. The test compounds were diluted in DMSO (8 concentrations with serial 3-fold dilutions) and added to the cells (0.5% DMSO final concentration), and the cells incubated for 4 hr. The cells were then washed three times with cold phosphate-buffered saline (PBS), and lysis buffer was added. After 30 min shaking at 4° C. and centrifugation, the supernatants were transferred to a nitrocellulose membrane by a “dot-blot” apparatus. After washing the wells, the membrane was processed for Western blot. Detection of p-H3 and β-actin was performed on the same membrane with primary rabbit anti-p-H3 and mouse anti-β-actin antibodies followed by secondary goat anti-rabbit IRDye800 and goat anti-mouse AlexaFluor 680 antibodies. The membranes were scanned on an Odyssey scanner.

[4] = system: HCT116 (human colon carcinoma); experiment: Cytotoxicity assay (CellTiter-Glo), HCT116; format: cell-based; conditions: HCT-116, 72 h, HCT116 cells, three days culture, rounded to 1 significant figure
Protocol: as §1, §2

[5] = system: HL60 (human promyelocytic leukemia) xenograft; experiment: HL60 xenograft assay, oral administration; format: in vivo; conditions: Mus musculus, HL-60, po, nu/nu mice, read-out: inhibition of tumor growth compared to vehicle
Protocol: (§3) Male athymic nu/nu mice, 6-8 weeks old (about 20 g), were implanted subcutaneously in the right fore flank with about 1×10^7 cells of the HL60 (human promyelocytic leukemia) line that had been grown in antibiotic-free medium for at least two passages. About 6 days after tumor implantation, when the tumor weight was about 50-250 mg, the mice were assigned to treatment groups. Test compounds were suspended at 20 mg/mL in 0.55 wt. % aqueous carboxymethylcellulose. Groups of mice were treated with compounds 2A, 9A, and 12A at 200 mg/Kg by gavage once/day on days 1-5 and 8-10 from the start of treatment, with vehicle control. Tumor growth inhibition was measured on the last day of treatment.
The experiment was conducted generally as described in In vivo Example 1. Groups of mice were treated with compounds 5A, 6A, 7A, 8A, and 10A at 200 mg/Kg by gavage once/day on days 1-5 and 8-10 from the start of treatment, with vehicle control. Tumor growth inhibition was measured the day after the last day of treatment.

[6] = system: DLD1 (human colon adenocarcinoma); experiment: Cytotoxicity assay (CellTiter-Glo), DLD1; format: cell-based; conditions: DLD-1, 72 h, DLD1 cells, three days culture, rounded to 1 significant figure
Protocol: as §1, §2

tubulin = experiment: Inhibition of tubulin polymerization, cell-free fluorescence assay; format: biochemical
[7] = system: OVCAR-3 (human ovarian carcinoma); experiment: Cytotoxicity assay (CellTiter-Glo), OVCAR-3; format: cell-based; conditions: 72 h, OVCAR-3 cells, three days culture, rounded to 1 significant figure
Protocol: as §1, §2

[8] = system: HCT116 (human colon carcinoma) xenograft; experiment: HCT116 xenograft assay, oral administration; format: in vivo; conditions: nu/nu mice, 200 mg/Kg by gavage once/day days 1-5 and 8-12, measured 2 days after the last day of treatment
Protocol: as §3, with “the HCT116” for “the HL60”, “(human colon carcinoma)” for “(human promyelocytic leukemia)”, “About 14-21” for “About 6”, “tumor transplantation,” for “tumor implantation,”, “and 8-12” for “and 8-10”, “measured 2 days after” for “measured on”

N#Cc1ccc(Nc2sc(C(=O)c3ccc(Cl)cc3)c(N)c2C#N)cc1 [Compound 40A]
IC50 [1]: 2 µM
activity in tubulin polymerization assay in A549 cells [2]: inactive

CCc1ccc(Nc2sc(C(=O)c3ccc(Cl)cc3)c(N)c2C#N)cc1 [Compound 15A, 4-amino-5-(4-chlorobenzoyl)-2-[(4-ethylphenyl)amino]thiophene-3-carbonitrile]
IC50 [1]: 0.1 µM
IC50 [3]: 0.09 µM
IC50 (p-H3 in A549 cells): 0.5 µM

COc1ccc(Nc2sc(C(=O)c3ccc(OC)cc3OC)c(N)c2C#N)cc1 [Compound 7A, 4-amino-5-(2,4-dimethoxybenzoyl)-2-[(4-methoxyphenyl)amino]thiophene-3-carbonitrile]
IC50 [4]: 0.01 µM
IC50 [1]: 0.03 µM
IC50 [3]: 0.02 µM
inhibition in vivo at 200 mg/kg ([5]; 200 mg/Kg by gavage once/day days 1-5 and 8-10, measured the day after the last day of treatment (In vivo Example 3)): 45%
IC50 ([2]; read-out: IC50, inhibition of tubulin polymerization in A549 cells): 0.009 µM

COc1ccc(Nc2sc(C(=O)c3ccc(Cl)cc3)c(N)c2C#N)cc1 [Compound 2A]
IC50 [6]: 0.006 µM
IC50 [4]: 0.01 µM
IC50 [1]: 0.01 µM
inhibition of tubulin polymerization (cell-free) (tubulin): inhibition of tubulin polymerization
IC50 [3]: 0.01 µM
IC50 (p-H3 in A549 cells): 0.02 µM
inhibition in vivo at 200 mg/kg ([5]; 200 mg/Kg by gavage once/day days 1-5 and 8-10, measured on the last day of treatment (In vivo Example 1)): 46%
IC50 [7]: 0.02 µM
inhibition of tumor growth compared to vehicle [8]: 35%
